Data published in PMC11800497, “Antifungal activity and biocompatibility assessment with molecular docking and dynamic simulations of new pyrazole derivatives” (BMC Biotechnology, 2025).
Where two headings read alike, the source gives them in different places. Marks after values point to notes of the source that are not given here.

Assays:
Test in all cases: Well-diffusion antifungal activity
A. flavus ATCC 9643 = format: cell-based, Aspergillus flavus; details: for zone of inhibition at 1000 µg/mL: Aspergillus flavus, read-out: IZD
Procedure: (§1) This study investigated strains of four distinct fungal pathogens: Aspergillus flavus ATCC 9643, A. niger ATCC 11414, Rhizopus oryzae ATCC 96382, and Penicillium chrysogenum ATCC 10106. Every strain was acquired from the Dep. of Micro. Fac. Agric., […] Uni., in Egypt. Initially kept and preserved in malt agar medium at 4 °C, the pathogens were then grown overnight at 28 °C in malt broth medium to evaluate the antifungal activity. Fungal pathogen standard inoculum was prepared by following the procedure described by. To assess the antifungal activity, the pathogens were first maintained and stored at 4 °C in malt agar medium. They were then cultured in malt broth medium for a whole night at 28 °C. According to [22], the well-diffusion technique was used to test the antifungal activity. This included using a 9.0 mm cork borer that had been sterilized to create wells in the malt agar layer. […] After adding 1000 μg/ml of control pyrazole compounds and the standard antifungal (Fluconazole 1000 μg/ml) to each well, the petri dishes were incubated at 28 °C for 72 h. The diameter of the standard reference antifungal was compared to the millimeters measurements of the inhibitory zones. The formula according to [22] was utilized to compute the activity index (AI).1 [drawing 1]

A. niger ATCC 11414 = format: cell-based, Aspergillus niger; details: for zone of inhibition at 1000 µg/mL: Aspergillus niger, read-out: IZD; for AI (activity index): relative to Fluconazole 1000 µg/ml
Procedure: This study investigated strains of four distinct fungal pathogens: Aspergillus flavus ATCC 9643, A. niger ATCC 11414, Rhizopus oryzae ATCC 96382, and Penicillium chrysogenum ATCC 10106. Every strain was acquired from the Dep. of Micro. Fac. Agric., […] Uni., in Egypt. Initially kept and preserved in malt agar medium at 4 °C, the pathogens were then grown overnight at 28 °C in malt broth medium to evaluate the antifungal activity. Fungal pathogen standard inoculum was prepared by following the procedure described by [19, 20]. To assess the antifungal activity, the pathogens were first maintained and stored at 4 °C in malt agar medium. They were then cultured in malt broth medium for a whole night at 28 °C. According to [22], the well-diffusion technique was used to test the antifungal activity. This included using a 9.0 mm cork borer that had been sterilized to create wells in the malt agar layer. […] After adding 1000 μg/ml of control pyrazole compounds and the standard antifungal (Fluconazole 1000 μg/ml) to each well, the petri dishes were incubated at 28 °C for 72 h. The diameter of the standard reference antifungal was compared to the millimeters measurements of the inhibitory zones. The formula according to [22] was utilized to compute the activity index (AI).1 [drawing 1]

R. oryzae ATCC 96382 = format: cell-based, Rhizopus oryzae; details: Rhizopus arrhizus, read-out: IZD
Procedure: as §1

[1] = system: P. chrysogenum ATCC 10106; format: cell-based, Penicillium chrysogenum; details: for zone of inhibition at 1000 µg/mL: Penicillium chrysogenum, read-out: IZD; for AI (activity index): relative to Fluconazole 1000 µg/ml
Procedure: as §1

[2] = ATCC9643, 1000 µg/ml, 72 h, 28 °C
[3] = ATCC11414, 1000 µg/ml, 72 h, 28 °C
[4] = ATCC96382, 1000 µg/ml, 72 h, 28 °C
[5] = ATCC10106, 1000 µg/ml, 72 h, 28 °C

| SMILES | zone of inhibition at 1000 µg/mL (A. flavus ATCC 9643; [2]) [mm] | zone of inhibition at 1000 µg/mL (A. niger ATCC 11414; [3]) [mm] | zone of inhibition at 1000 µg/mL (R. oryzae ATCC 96382; [4]) [mm] | zone of inhibition at 1000 µg/mL [1, 5] [mm] | AI (activity index) (A. niger ATCC 11414; 1000 µg/ml) | AI (activity index) ([1]; 1000 µg/ml) | IZD (A. niger ATCC 11414; 1000 µg/ml, 72 h, 28 °C) | IZD ([1]; 1000 µg/ml, 72 h, 28 °C) | zone of inhibition at 1000 µg/mL (A. flavus ATCC 9643; ATCC9643, 72 h) [mm] | zone of inhibition at 1000 µg/mL (A. niger ATCC 11414; ATCC11414, 72 h) [mm] | zone of inhibition at 1000 µg/mL (R. oryzae ATCC 96382; ATCC96382, 72 h) [mm] | zone of inhibition at 1000 µg/mL ([1]; ATCC10106, 72 h) [mm] | IZD (A. flavus ATCC 9643; 1000 µg/ml, 72 h, 28 °C) |
| --- | --- | --- | --- | --- | --- | --- | --- | --- | --- | --- | --- | --- | --- |
| Cc1ccc(NC(=O)/C(C#N)=C/c2cn(-c3ccccc3)nc2-c2ccccc2)cc1 [3a] | 0 | 0 | 0 | 0 |  |  |  |  |  |  |  |  |  |
| N#C/C(=C\c1cn(-c2ccccc2)nc1-c1ccccc1)C(=O)Nc1ccc(Br)cc1 [3c] | 0 | 0 | 0 | 0 |  |  |  |  |  |  |  |  |  |
| N#C/C(=C\c1cn(-c2ccccc2)nc1-c1ccccc1)C(=O)Nc1ccc(Cl)cc1 [3d] | 0 | 0 | 0 | 0 |  |  |  |  |  |  |  |  |  |
| N#C/C(=C\c1cn(-c2ccccc2)nc1-c1ccccc1)C(=O)Nc1ccc(C(=O)O)cc1 [3e] | 0 | 0 | 0 | 0 |  |  |  |  |  |  |  |  |  |
| N#C/C(=C\c1cn(-c2ccccc2)nc1-c1ccccc1)C(=O)Nc1ccc([N+](=O)[O-])cc1 [3f] | 0 | 0 | 0 | 0 |  |  |  |  |  |  |  |  |  |
| N#C/C(=C\c1cn(-c2ccccc2)nc1-c1ccccc1)C(=O)Nc1nccs1 [3g] | 0 | 18 ± 0.77 | 0 | 0 | 0.56 |  |  |  |  |  |  |  |  |
| N#C/C(=C\c1cn(-c2ccccc2)nc1-c1ccccc1)C(=O)Nc1nc2ccccc2s1 [3h] | 0 | 0 | 0 | 15 ± 0.25 |  | 0.65 |  |  |  |  |  |  |  |
| O=C(NN=Cc1cn(-c2ccccc2)nc1-c1ccccc1)c1cc2ccccc2oc1=O [10a] | 0 | 0 | 0 | 0 |  |  |  |  |  |  |  |  |  |
| Cc1ccc(N=Nc2ccc3oc(=O)c(C(=O)NN=Cc4cn(-c5ccccc5)nc4-c4ccccc4)cc3c2)cc1 [10b] | 0 | 28 | 0 | 20 | 0.87 | 0.87 | 28 ± 0.12^c mm | 20 ± 0.13^e mm |  |  |  |  |  |
| OC(Cn1cncn1)(Cn1cncn1)c1ccc(F)cc1F [Fluconazole, reference compound] | 30.02 ± 0.05 | 32 ± 0.2 | 20.99 ± 0.05 | 23.1 ± 0.06 |  |  |  |  |  |  |  |  |  |
| O=Cc1cn(-c2ccccc2)nc1-c1ccccc1 [compound 1, 1,3-diphenyl-1H-pyrazole-4-carbaldehyde] |  |  |  |  |  |  |  |  | 0 | 0 | 0 | 0 |  |
| O=C1OC(=O)c2c(Br)c(Br)c(Br)c(Br)c21 [compound 5, 4,5,6,7 tetrabromoisobenzofuran-1,3-dione] | 0 | 0 | 0 | 0 |  |  |  |  |  |  |  |  |  |
| N#Cc1c(-c2cn(-c3ccccc3)nc2-c2ccccc2)[nH][nH]c1=O [compound 7] | 0 | 0 | 0 | 13 ± 0.11 |  | 0.56 |  |  |  |  |  |  |  |
| N#CCC(=O)NN=Cc1cn(-c2ccccc2)nc1-c1ccccc1 [compound 8] | 0 | 0 | 0 | 0 |  |  |  |  |  |  |  |  |  |
| CN(C)/C=C(\C#N)C(=O)N/N=C/c1cn(-c2ccccc2)nc1-c1ccccc1 [compound 11] | 0 | 0 | 0 | 0 |  |  |  |  |  |  |  |  |  |
| CN(C)C=C1C(=O)NN=C(c2cn(-c3ccccc3)nc2-c2ccccc2)C1=O [compound 12] | 23 | 25 | 0 | 0 | 0.78 |  | 25 ± 0.08^f mm |  |  |  |  |  | 23 ± 0.02^d mm |
